Source: the OligoGym collection
HELM strings list units from the 5' end as sugar, base in round brackets, then linkage (d deoxyribose, r ribose, m 2'-O-methyl, p phosphodiester). Strings are as the collection lists them; they lack the last nucleoside at the 3' end of the tested compound. [moe] = 2'-O-(2-methoxyethyl) (MOE); [sp] = phosphorothioate linkage; [m5C] = 5-methylcytosine

Target: ATXN2
Assay: mouse, dose not given
Conditions: ASO

Question: For “RNA1{[moe]([m5C])[sp].[moe](T)p.[moe](G)p.[moe](G)p.[moe](A)p.d(T)[sp].d(T)[sp].d([m5C])[sp].d(T)[sp].d(G)[sp].d(T)[sp].d(A)[sp].d([m5C])[sp].d(T)[sp].d(T)[sp].[moe](T)p.[moe](T)p.[moe]([m5C])[sp].[moe](T)}$$$$ (last 3' nucleoside missing)”, which 3 h FOB score is on record?
Answer: 5.25 score 0-7

Question: How did the 3 h FOB score turn out when “RNA1{[moe]([m5C])[sp].[moe](T)p.[moe](G)p.[moe](G)p.[moe](T)p.d(T)[sp].d([m5C])[sp].d([m5C])[sp].d(T)[sp].d(T)[sp].d(A)[sp].d([m5C])[sp].d(A)[sp].d(A)[sp].d(T)[sp].[moe](T)p.[moe](A)p.[moe](T)[sp].[moe]([m5C])}$$$$ (last 3' nucleoside missing)” was run?
Answer: 1 score 0-7

Question: With “RNA1{[moe]([m5C])[sp].[moe](T)p.[moe](G)p.[moe](G)p.d(A)[sp].d(T)[sp].d(T)[sp].d([m5C])[sp].d(T)[sp].d(G)[sp].d(T)[sp].d(A)[sp].d([m5C])[sp].d(T)[sp].[moe](T)p.[moe](T)p.[moe](T)p.[moe]([m5C])[sp].[moe](T)}$$$$ (last 3' nucleoside missing)” as the substance, how does the 3 h FOB score read?
Answer: 2 score 0-7

Question: How did the 3 h FOB score turn out when “RNA1{[moe]([m5C])[sp].[moe](T)p.[moe](G)p.[moe](T)p.[moe](A)[sp].d([m5C])[sp].d(T)[sp].d(T)[sp].d(T)[sp].d(T)[sp].d([m5C])[sp].d(T)[sp].d([m5C])[sp].[moe](A)p.[moe](T)p.[moe](G)[sp].[moe](T)}$$$$ (last 3' nucleoside missing)” was run?
Answer: 3.5 score 0-7

Question: How did the 3 h FOB score turn out when “RNA1{[moe]([m5C])[sp].[moe](T)p.[moe](G)p.[moe](T)p.[moe](A)p.d([m5C])[sp].d(T)[sp].d(T)[sp].d(T)[sp].d(T)[sp].d([m5C])[sp].d(T)[sp].d([m5C])[sp].d(A)[sp].d(T)[sp].[moe](G)p.[moe](T)p.[moe](G)[sp].[moe]([m5C])}$$$$ (last 3' nucleoside missing)” was run?
Answer: 1.25 score 0-7

Question: Which 3 h FOB score does the source give for “RNA1{[moe]([m5C])[sp].[moe](T)p.[moe](G)p.[moe](T)p.[moe](G)p.d(A)[sp].d(G)[sp].d(T)[sp].d(T)[sp].d([m5C])[sp].d(A)[sp].d([m5C])[sp].d([m5C])[sp].d(T)[sp].d(G)[sp].[moe]([m5C])p.[moe](A)p.[moe](T)[sp].[moe]([m5C])}$$$$ (last 3' nucleoside missing)” here?
Answer: 1 score 0-7

Question: For “RNA1{[moe]([m5C])[sp].[moe](T)p.[moe](G)p.[moe](T)p.[moe](G)p.d(T)[sp].d(A)[sp].d(T)[sp].d(T)[sp].d(T)[sp].d(T)[sp].d(T)[sp].d([m5C])[sp].d(T)[sp].d(T)[sp].[moe]([m5C])p.[moe]([m5C])p.[moe](T)[sp].[moe]([m5C])}$$$$ (last 3' nucleoside missing)”, which 3 h FOB score is on record?
Answer: 0 score 0-7

Question: For “RNA1{[moe]([m5C])[sp].[moe](T)p.[moe](G)p.[moe]([m5C])p.[moe](T)[sp].d(A)[sp].d(A)[sp].d([m5C])[sp].d(T)[sp].d(G)[sp].d(G)[sp].d(T)[sp].d(T)[sp].[moe](T)p.[moe](G)p.[moe]([m5C])[sp].[moe]([m5C])}$$$$ (last 3' nucleoside missing)”, which 3 h FOB score is on record?
Answer: 4 score 0-7

Question: How did the 3 h FOB score turn out when “RNA1{[moe]([m5C])[sp].[moe](T)p.[moe](G)p.[moe]([m5C])p.[moe](T)p.[moe](A)p.d(A)[sp].d([m5C])[sp].d(T)[sp].d(G)[sp].d(G)[sp].d(T)[sp].d(T)[sp].d(T)[sp].d(G)[sp].d([m5C])[sp].[moe]([m5C])p.[moe]([m5C])[sp].[moe](T)}$$$$ (last 3' nucleoside missing)” was run?
Answer: 5.5 score 0-7

Question: Which 3 h FOB score does the source give for “RNA1{[moe]([m5C])[sp].[moe](T)p.[moe](G)p.[moe]([m5C])p.[moe](T)p.d(A)[sp].d(A)[sp].d([m5C])[sp].d(T)[sp].d(G)[sp].d(G)[sp].d(T)[sp].d(T)[sp].d(T)[sp].d(G)[sp].[moe]([m5C])p.[moe]([m5C])p.[moe]([m5C])[sp].[moe](T)}$$$$ (last 3' nucleoside missing)” here?
Answer: 6 score 0-7
